The results in this text go back to patent publication US20230090391A1, “OMECAMTIV MECARBIL TABLET” (Amgen Inc., priority 2020, published 2023).

The nature of data set [1]: 19F solid state NMR of granulation and IR mini-tablet cores (physical form). Type of data set: physicochemical. The note with it: 19F SSNMR of IR granulation and IR mini-tablet cores. The text has this: Cores 1A-1C, as well as the corresponding granulates, were subjected to analytical characterizations. The results are depicted in FIGS. 3 and 4.
FIGS. 3 and 4 depict the ^19F solid state NMR (SSNMR) spectra of the immediate-release granulation and immediate-release mini-tablet cores.

Data set [2] in a line: Phase 1 crossover study: safety and tolerability of single oral doses of OM. In kind it is in vivo, healthy adult subjects. The conditions noted are these: all 5 treatments. The procedure:
The secondary objective of the study was to evaluate the safety and tolerability of a single 6 mg dose (administered as mini-tablets) or 25 mg dose (administered as a MR tablet or mini-tablets) of OM administered to healthy adult subjects.
The study was a Phase 1, single-center, open-label, randomized, 5-period, 4-sequence crossover study to investigate the pharmacokinetics, safety, and tolerability of the disclosed tablet formulations and a conventional MR tablet formulation of OM in healthy male and healthy female adult subjects. Subjects were screened to assess eligibility to enter the study within 21 days prior to the first dose administration. Subjects were admitted into the clinical research unit on Day 1 and confined to the clinical research unit for Periods 1 through 5 until discharged at end of study. Following randomization into 1 of 4 treatment sequences, subjects received 1 of the 5 treatments on Day 1 of each treatment period with all subjects receiving all 5 treatments. Blood was collected at predetermined timepoints to characterize plasma concentrations of OM. Safety and tolerability monitoring was performed throughout the study.
Up to twenty subjects (5 per sequence) were enrolled in the study. Data for all 20 subjects entered into the study were included in the PK and safety analyses. Healthy male or female subjects were selected according to inclusion and exclusion criteria. The subjects were assigned to one of the five following Treatment Groups (A-E): • Treatment Group A: 25 mg (1×25 mg) OM MR tablet; • Treatment Group B: 25 mg (25×1 mg) OM slow-release mini-tablets; • Treatment Group C: 25 mg (25×1 mg) OM fast-release mini-tablets; • Treatment Group D: 6 mg (6×1 mg) OM slow-release mini-tablets; and • Treatment Group E: 6 mg (6×1 mg) OM fast-release mini-tablets.
The safety analysis included monitoring adverse events, clinical laboratory evaluations, 12 lead electrocardiograms (ECGs), and vital signs during the study.
All safety data were listed. The treatment-emergent adverse events were summarized by treatment, severity, and relationship to the study drug. The frequency of treatment emergent adverse events was summarized by treatment, system organ class and preferred term of the Medical Dictionary for Regulatory Activities. No inferential statistical analyses were planned.

Counter-ions that a name gives are not always drawn.

As for `COC(=O)N1CCN(Cc2cccc(NC(=O)Nc3ccc(C)nc3)c2F)CC1` [omecamtiv mecarbil dihydrochloride monohydrate], the “Stability and physical form during manufacturing” value in data set [1] is “stable during manufacturing and exhibits no change in physical form”.

`COC(=O)N1CCN(Cc2cccc(NC(=O)Nc3ccc(C)nc3)c2F)CC1` [OM, Omecamtiv mecarbil]: in data set [2] (20 subjects), the “Clinical laboratory evaluations, vital signs, 12-lead ECGs” value is “no clinically significant findings”; the “Number of subjects reporting treatment-emergent adverse events considered related to OM” value was 7 subjects; the Serious adverse events entry was “no serious adverse events”; the “Treatment-emergent adverse events leading to discontinuation” value is on record as “no treatment-emergent adverse events led to premature discontinuation”. Further, the “Severity of adverse events” value in data set [2] (20 subjects, resolved by the end of the study) is listed as “mild”. In addition, the “Number of treatment-emergent adverse events considered related to OM” value in data set [2] (myalgia, dizziness, costochondritis, muscle twitching, non-cardiac chest pain) is given as “Eight”.
